Experimental findings from ChEMBL document CHEMBL1132590, “Aminopyridazines as acetylcholinesterase inhibitors” (J Med Chem, 1999) are described below.

Experiment [1] deals with T1, Acetylcholinesterase (Rattus norvegicus, UniProt P37136).
T1 sequence (P37136 whole entry): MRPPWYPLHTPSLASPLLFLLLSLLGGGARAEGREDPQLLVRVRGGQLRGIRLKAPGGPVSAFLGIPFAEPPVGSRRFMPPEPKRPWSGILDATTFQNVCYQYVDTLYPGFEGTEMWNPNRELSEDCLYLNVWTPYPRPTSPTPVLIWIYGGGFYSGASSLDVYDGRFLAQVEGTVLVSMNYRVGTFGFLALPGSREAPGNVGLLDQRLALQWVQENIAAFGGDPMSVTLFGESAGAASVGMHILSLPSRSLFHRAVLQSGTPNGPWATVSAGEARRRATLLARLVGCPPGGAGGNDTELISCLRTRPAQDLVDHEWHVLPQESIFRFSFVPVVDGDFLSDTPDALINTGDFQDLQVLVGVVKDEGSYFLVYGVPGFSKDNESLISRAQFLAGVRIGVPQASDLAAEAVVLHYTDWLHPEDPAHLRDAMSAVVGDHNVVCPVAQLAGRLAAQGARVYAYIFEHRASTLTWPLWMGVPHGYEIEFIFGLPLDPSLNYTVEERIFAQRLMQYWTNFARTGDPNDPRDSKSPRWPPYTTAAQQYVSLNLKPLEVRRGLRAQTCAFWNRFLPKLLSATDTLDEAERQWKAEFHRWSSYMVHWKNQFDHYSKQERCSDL
Description: In vitro inhibition of acetylcholinesterase in homogenized rat striatum.

Experiment [2] deals with Acetylcholinesterase (Torpedo californica, UniProt P04058).
Chain of Acetylcholinesterase (Torpedo californica, UniProt P04058) (P04058 whole entry): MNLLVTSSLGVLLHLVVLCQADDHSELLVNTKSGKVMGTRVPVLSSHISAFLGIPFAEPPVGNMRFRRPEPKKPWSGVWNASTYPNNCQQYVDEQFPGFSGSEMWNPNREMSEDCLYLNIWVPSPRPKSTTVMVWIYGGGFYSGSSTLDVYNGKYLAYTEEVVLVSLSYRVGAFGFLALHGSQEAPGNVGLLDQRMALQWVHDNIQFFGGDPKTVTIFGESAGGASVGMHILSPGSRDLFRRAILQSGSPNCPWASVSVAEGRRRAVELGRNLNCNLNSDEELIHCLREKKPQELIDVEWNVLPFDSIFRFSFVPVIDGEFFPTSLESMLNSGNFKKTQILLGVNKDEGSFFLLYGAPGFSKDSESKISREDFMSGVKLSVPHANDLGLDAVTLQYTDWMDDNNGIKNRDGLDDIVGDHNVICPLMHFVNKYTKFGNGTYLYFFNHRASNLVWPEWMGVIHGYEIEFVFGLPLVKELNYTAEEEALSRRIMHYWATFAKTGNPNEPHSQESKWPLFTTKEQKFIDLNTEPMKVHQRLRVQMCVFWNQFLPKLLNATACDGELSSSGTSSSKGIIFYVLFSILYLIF
Description: In vitro inhibition of Torpedo californica acetylcholinesterase.
Experiment [3] addresses Acetylcholinesterase (Homo sapiens, UniProt P22303). The experiment is described as follows: Inhibitory concentration against acetylcholinesterase (AChE) from human erythrocytes.
The target of the next experiment is Cholinesterase (Homo sapiens, UniProt P06276). The experiment is described as follows: Inhibitory concentration against Butyrylcholinesterase (BuChE) from human serum.
Chain of Cholinesterase (P06276 whole entry): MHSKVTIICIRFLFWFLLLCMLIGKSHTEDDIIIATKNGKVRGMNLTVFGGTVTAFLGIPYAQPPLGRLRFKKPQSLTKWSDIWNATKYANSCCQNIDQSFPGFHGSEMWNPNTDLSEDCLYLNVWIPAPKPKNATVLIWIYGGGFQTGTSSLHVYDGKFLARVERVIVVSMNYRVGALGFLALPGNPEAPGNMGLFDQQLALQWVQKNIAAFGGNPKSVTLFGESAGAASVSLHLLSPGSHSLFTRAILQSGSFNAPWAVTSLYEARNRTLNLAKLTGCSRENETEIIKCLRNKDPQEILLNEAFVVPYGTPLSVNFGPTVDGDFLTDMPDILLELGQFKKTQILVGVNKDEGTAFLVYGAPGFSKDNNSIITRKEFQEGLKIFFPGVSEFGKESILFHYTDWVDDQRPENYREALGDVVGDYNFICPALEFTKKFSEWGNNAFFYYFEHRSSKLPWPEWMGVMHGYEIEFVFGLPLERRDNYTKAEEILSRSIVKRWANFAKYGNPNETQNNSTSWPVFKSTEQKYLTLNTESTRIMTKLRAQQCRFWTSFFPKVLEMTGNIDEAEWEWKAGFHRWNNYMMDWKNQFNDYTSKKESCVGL
Experiment [4] is described as follows: Ratio of inhibitory activity of ocmpound towards acetylcholinesterase from human erythrocytes over butyrylcholinesterase from human serum.

Usually IC50 stands for the concentration at which inhibition is half-maximal. Lower therefore signals greater potency in that assay.

SMILES strings stand for the structures.

Chain of Acetylcholinesterase (Homo sapiens, UniProt P22303) (P22303 whole entry): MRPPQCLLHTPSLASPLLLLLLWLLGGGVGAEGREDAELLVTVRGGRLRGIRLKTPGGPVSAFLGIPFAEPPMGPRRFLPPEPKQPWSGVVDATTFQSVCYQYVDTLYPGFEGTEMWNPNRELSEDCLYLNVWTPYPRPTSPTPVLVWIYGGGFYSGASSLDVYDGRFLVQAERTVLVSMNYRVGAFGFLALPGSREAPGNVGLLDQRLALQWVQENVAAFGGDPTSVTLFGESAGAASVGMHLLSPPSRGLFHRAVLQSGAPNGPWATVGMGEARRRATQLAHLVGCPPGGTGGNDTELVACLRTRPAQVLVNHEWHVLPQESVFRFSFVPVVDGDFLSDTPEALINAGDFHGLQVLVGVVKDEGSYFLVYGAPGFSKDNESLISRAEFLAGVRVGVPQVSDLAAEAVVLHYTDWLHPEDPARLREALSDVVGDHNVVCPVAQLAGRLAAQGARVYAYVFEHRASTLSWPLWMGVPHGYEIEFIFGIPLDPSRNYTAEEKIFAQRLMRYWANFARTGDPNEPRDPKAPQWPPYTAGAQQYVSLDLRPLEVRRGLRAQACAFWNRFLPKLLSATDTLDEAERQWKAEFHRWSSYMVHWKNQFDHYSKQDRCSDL

In turn, `c1ccc(-c2cc(-c3ccccc3)c(NCCN3CCOCC3)nn2)cc1` displayed an IC50 on Acetylcholinesterase [1] of 260 µM.
On Acetylcholinesterase [2], `c1ccc(CN2CCC(Nc3ccc(-c4ccccc4)nn3)CC2)cc1` returned a 50% inhibitory concentration (IC50) of 65 µM.
As to `c1ccc(-c2ccc(NCCN3CCCCC3)nc2)cc1`, the IC50 against Acetylcholinesterase [1] was found to be 70 µM.
On to `c1ccc(-c2ccc(NCCN3CCOCC3)nn2)cc1`, for which the results for the IC50 on Acetylcholinesterase [2] and against Acetylcholinesterase [1] were 800 µM and over 1000 µM, respectively.
`Cc1cc(-c2ccc3c(c2)OCO3)nnc1NCCN1CCCCC1`: the 50% inhibitory concentration (IC50) on Acetylcholinesterase [1] worked out at 1 µM.
The same measure, in the same setting: the figure for `c1ccc(-c2cnc(NCCN3CCCCC3)nc2)cc1` is over 100 µM.
`CCN1CCCC1CNc1ccc(-c2ccccc2)nn1` (configuration not stated) returned an IC50 at Acetylcholinesterase [2] of 62 µM.
On to `c1ccc(-c2ccc(NCCCCN3CCc4ccccc4C3)nn2)cc1`, for which the IC50 against Acetylcholinesterase [2] amounted to 15 µM.
The compound `c1ccc(-c2ncc(NCCN3CCCCC3)nn2)cc1` gave an IC50 against Acetylcholinesterase [1] of 57 µM.
Turning to `c1ccc(CN2CCC(CNc3ccc(-c4ccccc4)nn3)CC2)cc1`, at Acetylcholinesterase [2], half-maximal inhibition (IC50) was put at 5.6 µM.
For `Cc1cc(-c2ccc(Cl)cc2)nnc1NCCN1CCOCC1`, the midpoint of inhibition against Acetylcholinesterase [1], the IC50, lay at 34 µM.
Consider `c1ccc(-c2ccc(NCCCCCN3CCc4ccccc4C3)nn2)cc1`, for which the half-maximal inhibitory concentration (IC50) was found to be 47 µM against Acetylcholinesterase [3], 0.31 µM against Cholinesterase and 10 µM at Acetylcholinesterase [2]. Further, the Ratio in experiment [4] stood at 0.0066.
For `c1ccc(-c2ccc(NCCCN3CCOCC3)nn2)cc1`, the IC50 at Acetylcholinesterase [2] came to 410 µM.
With `Cc1cc(-c2ccccc2)nnc1NCCN1CCOCC1`, the IC50 on Acetylcholinesterase [1] stood at 85 µM.
On Acetylcholinesterase [1], `Cc1cc(-c2ccc(Cl)cc2)nnc1NCCN1CCCCC1` yielded an IC50 of 1.3 µM.
On the same count and under the same terms, the figure for `Cc1cc(-c2ccccc2)nnc1NCCN1CCCCC1` is 5.4 µM.
As for `CN(CCCNc1ccc(-c2ccccc2)nn1)Cc1ccccc1`, 13 µM corresponded to half-maximal inhibition on Acetylcholinesterase [2] (IC50).
At Acetylcholinesterase [1], `Nc1cc(-c2ccccc2)nnc1NCCN1CCOCC1` came in with an IC50 of 270 µM.
With `c1ccc(-c2ccc(NCCCN3CCc4ccccc4C3)nn2)cc1`, the IC50 against Acetylcholinesterase [2] amounted to 35 µM.
The same measure, in the same setting: as for `CN(CCNc1ccc(-c2ccccc2)nn1)Cc1ccccc1`, the figure is 170 µM.
For `c1ccc(CN2CCC(CCNc3ccc(-c4ccccc4)nn3)CC2)cc1`, the IC50 was 0.14 µM at Acetylcholinesterase [3], 0.7 µM against Cholinesterase and 0.12 µM at Acetylcholinesterase [2]. In experiment [4], the Ratio worked out at 5.
Regarding `c1ccc(-c2ccc(NCCN3CCCCC3)nn2)cc1`, the figures for the IC50 against Acetylcholinesterase [2] and on Acetylcholinesterase [1] were 71 µM and 13 µM, respectively.
As for `c1ccc(-c2cnc(NCCN3CCCCC3)nn2)cc1`, inhibition at Acetylcholinesterase [1] was half-maximal at 60 µM (IC50).
The same measure, in the same setting: the figure for `c1ccc(-c2nnc(NCCN3CCCCC3)s2)cc1` is 54 µM; for `OCc1cc(-c2ccccc2)nnc1NCCN1CCOCC1` it is 440 µM; for `FC(F)(F)c1cc(-c2ccccc2)nnc1NCCN1CCOCC1` it is 740 µM.
As for `c1ccc(-c2ccc(NCCN3CCc4ccccc4C3)nn2)cc1`, on Acetylcholinesterase [2], the IC50 is 83 µM.
Consider `c1ccc(C2=NNC(NCCN3CCCCC3)=NC2)cc1`, for which inhibition against Acetylcholinesterase [1] was half-maximal at 47 µM (IC50).
The compound `CN(CCCCNc1ccc(-c2ccccc2)nn1)Cc1ccccc1` yielded an IC50 on Acetylcholinesterase [2] of 11 µM.
Regarding `N#Cc1cc(-c2ccccc2)nnc1NCCN1CCOCC1`, the IC50 at Acetylcholinesterase [1] is over 100 µM.
Consider `CN(CCCCCNc1ccc(-c2ccccc2)nn1)Cc1ccccc1`, for which the figures for the IC50 on Acetylcholinesterase [3], against Cholinesterase and at Acetylcholinesterase [2] were 0.93 µM, 0.34 µM and 0.74 µM, respectively. Moreover, the Ratio in experiment [4] amounted to 0.36.
